Measurements: patent US7576103B2, “Tetralin and indane derivatives and uses thereof” (Roche Palo Alto LLC, priority 2004, dated 2009)

Columns and labels:
[1] = target: T1, recombinant human 5-HT6 receptor (Homo sapiens, UniProt P50406); experiment: Radioligand binding, [3H]LSD competition, 5-HT6; details: membranes of HEK293 cells, pH 7.4, 37° C., read-out: pKi for the 5-HT6 receptor (converted)
T1 construct: expressed in transfected cells; cell membranes
Method: (§1) The binding activity of compounds of this invention in vitro was determined as follows. Duplicate determinations of 5-HT6 ligand affinity were made by competing for binding of [^3H]LSD in cell membranes derived from HEK293 cells stably expressing recombinant human 5-HT6 receptor. Duplicate determinations of 5-HT2A ligand affinity were made by competing for binding of [^3H]Ketanserin (3-(2-(4-(4-fluorobenzoyl)piperidinol)ethyl)-2,4(1H,3H)-quinazolinedione) in cell membranes derived from CHO-K1 cells stably expressing recombinant human 5-HT2A receptor. Membranes were prepared from HEK 293 cell lines by the method described by Monsma et al., Molecular Pharmacology, Vol. 43 pp. 320-327 (1993), and from CHO-K1 cell lines as described by Bonhaus et al., Br J Pharmacol. June 115(4):622-8 (1995).
(§2) For estimation of affinity at the 5-HT6 receptor, all determinations were made in assay buffer containing 50 mM Tris-HCl, 10 mM MgSO4, 0.5 mM EDTA, 1 mM ascorbic acid, pH 7.4 at 37° C., in a 250 microliter reaction volume. […]
(§3) Assay tubes containing [^3H] […] LSD or [^3H]Ketanserin were determined as radioactive counts per minute using Packard TopCount.
(§4) Displacement of [^3H]LSD or [^3H]Ketanserin from the binding sites was quantified by fitting concentration-binding data to a 4-parameter logistic equation: […]

[2] = target: T2, recombinant human 5-HT2A receptor (Homo sapiens, UniProt P28223); experiment: Radioligand binding, [3H]Ketanserin competition, 5-HT2A; details: membranes of CHO-K1 cells, pH 7.4, 32° C., read-out: pKi for the 5-HT2A receptor (converted)
T2 construct: expressed in transfected cells; cell membranes
T2 sequence (P28223 whole entry): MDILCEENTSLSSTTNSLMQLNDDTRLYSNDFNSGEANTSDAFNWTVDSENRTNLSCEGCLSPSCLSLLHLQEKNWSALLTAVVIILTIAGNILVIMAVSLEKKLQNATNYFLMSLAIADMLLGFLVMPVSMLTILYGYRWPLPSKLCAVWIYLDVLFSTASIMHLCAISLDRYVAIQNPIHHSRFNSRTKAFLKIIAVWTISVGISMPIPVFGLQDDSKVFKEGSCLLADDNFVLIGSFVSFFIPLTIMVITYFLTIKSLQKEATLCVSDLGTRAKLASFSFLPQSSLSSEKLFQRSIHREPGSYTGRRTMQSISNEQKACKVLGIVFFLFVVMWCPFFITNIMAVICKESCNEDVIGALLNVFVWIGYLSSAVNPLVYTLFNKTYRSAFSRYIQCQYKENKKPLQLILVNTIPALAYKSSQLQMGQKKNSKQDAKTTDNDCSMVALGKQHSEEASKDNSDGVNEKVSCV
Method: as §1, §2, §3, §4

T1 sequence (P50406 whole entry): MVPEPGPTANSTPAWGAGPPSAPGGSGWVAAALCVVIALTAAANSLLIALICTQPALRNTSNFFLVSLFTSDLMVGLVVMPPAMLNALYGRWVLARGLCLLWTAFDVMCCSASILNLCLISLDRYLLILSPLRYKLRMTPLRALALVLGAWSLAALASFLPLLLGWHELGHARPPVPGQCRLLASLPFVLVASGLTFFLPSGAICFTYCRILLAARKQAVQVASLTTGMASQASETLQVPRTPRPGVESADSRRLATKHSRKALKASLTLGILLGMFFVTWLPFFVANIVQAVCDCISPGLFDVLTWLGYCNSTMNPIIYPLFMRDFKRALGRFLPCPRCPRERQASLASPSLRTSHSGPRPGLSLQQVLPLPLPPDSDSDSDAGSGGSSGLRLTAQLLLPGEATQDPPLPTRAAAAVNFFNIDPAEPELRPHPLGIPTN

A Ki [1] of 1.82 nM and a Ki [2] of 61.7 nM were found for `CNCCOC1CCCc2cc(S(=O)(=O)c3ccccc3)ccc21` (centres unmarked) [Compound 5, [2-(6-Benzenesulfonyl-1,2,3,4-tetrahydro-naphthalen-1-yloxy)-ethyl]-methyl-amine] in this work.
